Drawing on paper PMC11784564 (RSC Chemical Biology, 2025), this text covers IC50 and Kd for six molecules.

The target of data set [1] is T1, PfSir2A (Plasmodium falciparum, UniProt Q8IE47).
T1 sequence (Q8IE47 1-273): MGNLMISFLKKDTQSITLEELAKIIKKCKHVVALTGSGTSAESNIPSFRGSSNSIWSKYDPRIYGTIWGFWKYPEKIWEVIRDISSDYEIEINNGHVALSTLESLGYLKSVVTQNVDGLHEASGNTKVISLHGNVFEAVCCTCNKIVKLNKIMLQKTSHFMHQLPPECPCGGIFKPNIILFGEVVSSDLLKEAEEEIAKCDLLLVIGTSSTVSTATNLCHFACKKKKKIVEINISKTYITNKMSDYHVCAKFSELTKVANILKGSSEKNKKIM
The experiment in a line: HPLC deacetylation assay with H3K9Ac peptide. Type of data set: biochemical.

In data set [2] the target is T1, PfSir2A. The data set is described as follows: HPLC demyristoylation assay with H3K9Myr peptide. The format is biochemical.
The target of data set [3] is T2, PfSir2A (Plasmodium falciparum) (UniProt Q8IE47).
T2 sequence: T1 sequence (Q8IE47 1-273)
The data set is described as follows: EMSA. Conditions: room temperature. In general terms: Mobility shift assays separate free from complexed probe on a gel.

Data set [4] concerns the target T3, PfSir2A (Plasmodium falciparum, UniProt Q8IE47 1-273).
T3 sequence: T1 sequence (Q8IE47 1-273)
The experiment in a line: MST.

A word on the IC50: it is the concentration at which inhibition is half-maximal. A low value points to inhibition by little substance. As a reminder, the Kd is a measure of binding affinity in units of concentration. A higher Kd goes with weaker binding.

On PfSir2A [1], `NC(=O)c1ccc[n+]([C@@H]2O[C@H](CO)[C@@H](O)[C@H]2O)c1` [nicotinamide riboside] yielded a 50% inhibitory concentration (IC50) of 155 ± 14.9 µM.

Consider `CCCCCCCCCCCCCC(=O)O` [myristic acid], for which half-maximal inhibition at PfSir2A [2] (IC50) was put at 107 ± 15 µM.

“601 nucleosome assembly sequence DNA, 147 bp” registered a Kd in data set [3] ([…]) / MST buffer) of 4 µM.

On PfSir2A [1], `c1cncc(-c2c[nH]nn2)c1` [3-TYP] yielded an IC50 of about 59.6 µM.

Molecule H3K9Ac dNuc (601-positioned nucleosome) yielded a Kd in data set [3] (H3K9Ac on histone H3; […]) / MST buffer) of 1.4 µM.

B1: ssDNA (MST) (ssDNA)
DNA: GAAGTCGGGGATGGCAGAGGCAGTGCT
As to B1, the Kd with PfSir2A [4] is 0.138 µM.
